Data from ChEMBL document CHEMBL1137624, “Synthesis and characterization of pyrrolidine derivatives as potent agonists of the human melanocortin-4 receptor” (Bioorg Med Chem Lett, 2007).
Calls of active or inactive are those of the source. The rule behind the calls is not given here.

Columns and labels:
Melanocortin receptor 4 [1] = biological target: T1, Melanocortin receptor 4 (Homo sapiens, UniProt P32245); assay: Displacement of [125I]NDP-MSH from human MC4 receptor expressed in HEK293 cells; type: cell-based
Melanocortin receptor 4 [2] = biological target: T1, Melanocortin receptor 4; assay: Intrinsic activity at human MC4 receptor expressed in CHO cells assessed as cAMP accumulation relative to alpha-MSH; type: functional, cell-based
Melanocortin receptor 4 [3] = biological target: T1, Melanocortin receptor 4; assay: Agonist activity at human MC4 receptor expressed in CHO cells assessed as cAMP accumulation by ELISA; type: functional, cell-based
Rattus norvegicus = assay: Decrease in cumulative food intake in high-fat diet fed CD rat at 5 mg/kg, ip after 1 to 6 hrs; type: functional, organism-based; set-up: dose 5 mg/kg
Melanocortin receptor 4 [4] = biological target: T1, Melanocortin receptor 4; assay: Antagonist activity at human MC4 receptor expressed in CHO cells assessed as inhibition of alpha-MSH-stimulated of cAMP production by ELISA; type: functional, cell-based
Melanocortin receptor 3 = Melanocortin receptor 3 (Homo sapiens, UniProt P41968); assay: Binding affinity at human MC3 receptor
Melanocortin receptor 5 = Melanocortin receptor 5 (Homo sapiens, UniProt P33032); assay: Binding affinity at human MC5 receptor
[5] = biological target: Melanocyte-stimulating hormone receptor (Homo sapiens, UniProt Q01726); assay: Binding affinity at human MC1 receptor at 10 uM
Melanocyte-stimulating hormone receptor, sequence (Q01726 whole entry, looked up): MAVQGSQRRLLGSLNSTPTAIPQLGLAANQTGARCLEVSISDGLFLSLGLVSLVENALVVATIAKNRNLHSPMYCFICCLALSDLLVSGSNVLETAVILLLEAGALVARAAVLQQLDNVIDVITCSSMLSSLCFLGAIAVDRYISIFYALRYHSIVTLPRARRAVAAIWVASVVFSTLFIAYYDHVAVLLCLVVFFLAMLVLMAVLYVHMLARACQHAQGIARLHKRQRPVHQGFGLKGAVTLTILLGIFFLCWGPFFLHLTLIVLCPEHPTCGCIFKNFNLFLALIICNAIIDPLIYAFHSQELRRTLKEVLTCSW

T1 sequence (P32245 whole entry): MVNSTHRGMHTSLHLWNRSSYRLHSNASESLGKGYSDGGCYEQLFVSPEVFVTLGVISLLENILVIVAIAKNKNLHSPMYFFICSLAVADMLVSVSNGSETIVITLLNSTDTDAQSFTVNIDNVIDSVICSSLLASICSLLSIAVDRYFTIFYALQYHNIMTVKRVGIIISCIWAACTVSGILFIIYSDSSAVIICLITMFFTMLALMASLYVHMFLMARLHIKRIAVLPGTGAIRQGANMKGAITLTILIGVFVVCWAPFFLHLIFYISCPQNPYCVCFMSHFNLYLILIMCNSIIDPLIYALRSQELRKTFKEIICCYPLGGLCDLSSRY
Melanocortin receptor 3, sequence (P41968 whole entry): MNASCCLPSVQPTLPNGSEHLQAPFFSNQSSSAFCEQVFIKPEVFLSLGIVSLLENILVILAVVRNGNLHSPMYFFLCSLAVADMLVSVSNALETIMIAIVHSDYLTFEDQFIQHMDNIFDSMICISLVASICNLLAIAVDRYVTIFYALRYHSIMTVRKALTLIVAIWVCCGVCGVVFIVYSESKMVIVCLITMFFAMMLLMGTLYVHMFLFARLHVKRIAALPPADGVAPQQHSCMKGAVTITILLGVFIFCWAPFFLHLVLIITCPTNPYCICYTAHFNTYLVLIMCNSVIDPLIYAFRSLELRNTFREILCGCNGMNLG
Melanocortin receptor 5, sequence (P33032 whole entry): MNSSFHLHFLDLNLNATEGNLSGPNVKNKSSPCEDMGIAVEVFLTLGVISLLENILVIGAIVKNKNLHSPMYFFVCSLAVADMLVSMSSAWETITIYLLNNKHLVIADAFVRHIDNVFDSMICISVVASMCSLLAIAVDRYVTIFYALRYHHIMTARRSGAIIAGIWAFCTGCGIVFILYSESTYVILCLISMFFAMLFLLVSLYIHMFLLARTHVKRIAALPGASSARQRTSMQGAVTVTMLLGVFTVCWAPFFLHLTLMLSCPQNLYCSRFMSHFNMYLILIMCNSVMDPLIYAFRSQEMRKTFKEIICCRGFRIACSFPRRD

| Structure (SMILES) | Ki (Melanocortin receptor 4 [1]) [nM] | Intrinsic activity (Melanocortin receptor 4 [2]) [%] | also measured |
| --- | --- | --- | --- |
| CCC(=O)N1C[C@@H](C(=O)N2CCN(c3ccc(C)cc3[C@@H](N)C(C)C)CC2)[C@H](c2ccc(Cl)cc2)C1 | 59 | 31 |  |
| Cc1ccc(N2CCN(C(=O)[C@@H]3CN(C(=O)OC(C)(C)C)C[C@H]3c3ccc(Cl)cc3)CC2)c([C@@H](N)C(C)C)c1 | 15 | 0 |  |
| CC(C)[C@H](N)c1cccc(F)c1N1CCN(C(=O)[C@@H]2CN(Cc3ccccc3)C[C@H]2c2ccc(Cl)cc2)CC1 | 340 | 22 |  |
| CC(C)[C@H](N)c1cc(C(F)(F)F)ccc1N1CCN(C(=O)[C@@H]2CN(Cc3ccccc3)C[C@H]2c2ccc(Cl)cc2Cl)CC1 | 610 |  |  |
| Cc1ccc(N2CCN(C(=O)[C@@H]3CN(C(=O)CCCc4ccccc4)C[C@H]3c3ccc(Cl)cc3)CC2)c([C@@H](N)C(C)C)c1 | 100 | 0 |  |
| CC(=O)N1C[C@@H](C(=O)N2CCN(c3ccc(C(F)(F)F)cc3[C@@H](N)CC(C)C)CC2)[C@H](c2ccc(Cl)cc2)C1 | 66 | 72 | EC50 (Melanocortin receptor 4 [3]): 1900 nM |
| Cc1ccc(N2CCN(C(=O)[C@@H]3CN(C(=O)CCCCc4ccccc4)C[C@H]3c3ccc(Cl)cc3)CC2)c([C@@H](N)C(C)C)c1 | 65 | 0 |  |
| CC(C)C[C@H](N)c1cc(C(F)(F)F)ccc1N1CCN(C(=O)[C@@H]2CNC[C@H]2c2ccc(Cl)cc2)CC1 | 82 | 34 |  |
| CC(C)C[C@H](N)c1cc(C(F)(F)F)ccc1N1CCN(C(=O)[C@@H]2CN(C(=O)CN)C[C@H]2c2ccc(Cl)cc2)CC1 | 96 | 12 |  |
| CC(C)C[C@H](N)c1cc(C(F)(F)F)ccc1N1CCN(C(=O)[C@@H]2CN(c3ccccc3)C[C@H]2c2ccc(Cl)cc2)CC1 | 260 | 24 |  |
| CC(C)C[C@H](N)c1cc(C(F)(F)F)ccc1N1CCN(C(=O)[C@@H]2CN(Cc3ccccc3)C[C@H]2c2ccc(Cl)cc2)CC1 | 120 | 52 | EC50 (Melanocortin receptor 4 [3]): 7300 nM |
| Cc1ccc(N2CCN(C(=O)C3CN(C4CCOCC4)CC3c3ccc(Cl)cc3)CC2)c([C@@H](N)C(C)C)c1 (stereo partly drawn) | 12 | 36 |  |
| CC(C)[C@H](N)c1cccc(F)c1N1CCN(C(=O)[C@H]2CN(Cc3ccccc3)C[C@@H]2c2ccc(Cl)cc2)CC1 | 98 | 3 |  |
| Cc1ccc(N2CCN(C(=O)[C@@H]3CN(Cc4ccccc4)C[C@H]3c3ccc(Cl)cc3)CC2)c([C@@H](N)C(C)C)c1 | 36 | 52 |  |
| CC(C)[C@H](N)c1cc(C(F)(F)F)ccc1N1CCN(C(=O)[C@@H](Cc2ccc(Cl)cc2Cl)N2CCCC2=O)CC1 | 4.5 |  |  |
| Cc1ccc(N2CCN(C(=O)[C@@H]3CN(C4CCN(C(C)C)CC4)C[C@H]3c3ccc(Cl)cc3)CC2)c([C@@H](N)C(C)C)c1 | 18 | 1 |  |
| CCN1CCC(N2C[C@@H](C(=O)N3CCN(c4ccc(C)cc4[C@@H](N)C(C)C)CC3)[C@H](c3ccc(Cl)cc3)C2)CC1 | 18 | 3 |  |
| CC(C)[C@H](N)c1cccc(F)c1N1CCN(C(=O)[C@@H]2CN(C(=O)C(C)(C)C)C[C@H]2c2ccc(Cl)cc2)CC1 | 540 |  |  |
| COc1ccc([C@@H]2CN(C(C)C)C[C@H]2C(=O)N2CCN(c3ccc(C(F)(F)F)cc3[C@@H](N)CC(C)C)CC2)cc1 | 67 | 67 | EC50 (Melanocortin receptor 4 [3]): 450 nM |
| CCNC(C)Cc1cccc(C(F)(F)F)c1 (stereo not drawn) |  |  | Activity (Rattus norvegicus): Active |
| CC(C)[C@H](N)c1cccc(F)c1N1CCN(C(=O)[C@@H]2CN(CCO)C[C@H]2c2ccc(Cl)cc2)CC1 | 580 |  |  |
| CC(C)[C@H](N)c1cccc(F)c1N1CCN(C(=O)[C@@H]2CN(C(=O)C3CCCCC3)C[C@H]2c2ccc(Cl)cc2)CC1 | 350 |  |  |
| CC(C)[C@H](N)c1cc(C(F)(F)F)ccc1N1CCN(C(=O)[C@H](C)Cc2ccc(Cl)cc2Cl)CC1 | 26 |  |  |
| CC(C)CN1C[C@@H](C(=O)N2CCN(c3c(F)cccc3[C@@H](N)C(C)C)CC2)[C@H](c2ccc(Cl)cc2)C1 | 43 | 52 | EC50 (Melanocortin receptor 4 [3]): 1400 nM |
| Cc1ccc(N2CCN(C(=O)[C@H]3CN(C4CCOCC4)C[C@@H]3c3ccc(Cl)cc3)CC2)c([C@@H](N)C(C)C)c1 | 8.6 | 18 | IC50 (Melanocortin receptor 4 [4]): 65 nM; Ki (Melanocortin receptor 3): 1400 nM; Ki (Melanocortin receptor 5): 380 nM; inhibition [5]: 33% |

| Structure (SMILES) | Ki (Melanocortin receptor 4 [1]) [nM] | Intrinsic activity (Melanocortin receptor 4 [2]) [%] | also measured |
| --- | --- | --- | --- |
| Cc1ccc(N2CCN(C(=O)[C@@H]3CN(C(=O)CCc4ccccc4)C[C@H]3c3ccc(Cl)cc3)CC2)c([C@@H](N)C(C)C)c1 | 75 | 0 |  |
| CC(C)[C@H](N)c1cccc(F)c1N1CCN(C(=O)[C@@H]2CN(C3CCCC3)C[C@H]2c2ccc(Cl)cc2)CC1 | 26 | 80 | EC50 (Melanocortin receptor 4 [3]): 400 nM |
| CC(C)C[C@H](N)c1cc(C(F)(F)F)ccc1N1CCN(C(=O)[C@@H]2CN(C(=O)OC(C)(C)C)C[C@H]2c2ccc(Cl)cc2)CC1 | 390 | 32 |  |
| CC(C)[C@H](N)c1cc(C(F)(F)F)ccc1N1CCN(C(=O)CCc2ccc(Cl)cc2Cl)CC1 | 74 |  |  |
| CCCC(=O)N1C[C@@H](C(=O)N2CCN(c3ccc(C)cc3[C@@H](N)C(C)C)CC2)[C@H](c2ccc(Cl)cc2)C1 | 68 | 14 |  |
| Cc1ccc(N2CCN(C(=O)[C@@H]3CN(C4CCCCC4)C[C@H]3c3ccc(Cl)cc3)CC2)c([C@@H](N)C(C)C)c1 | 6.6 | 21 |  |
| CC(=O)N1C[C@@H](C(=O)N2CCN(c3ccc(C)cc3[C@@H](N)C(C)C)CC2)[C@H](c2ccc(Cl)cc2)C1 | 110 | 35 |  |
| CC(=O)N1C[C@@H](C(=O)N2CCN(c3c(F)cccc3[C@@H](N)C(C)C)CC2)[C@H](c2ccc(Cl)cc2)C1 | 220 |  |  |
| CCCC(=O)N1C[C@@H](C(=O)N2CCN(c3c(F)cccc3[C@@H](N)C(C)C)CC2)[C@H](c2ccc(Cl)cc2)C1 | 260 |  |  |
| CC(C)C[C@H](N)c1cc(C(F)(F)F)ccc1N1CCN(C(=O)[C@@H]2CN(S(C)(=O)=O)C[C@H]2c2ccc(Cl)cc2)CC1 | 95 | 34 |  |
| CC(C)[C@H](N)c1cccc(F)c1N1CCN(C(=O)[C@@H]2CN(C(=O)c3ccccc3)C[C@H]2c2ccc(Cl)cc2)CC1 | 160 |  |  |
| CC(C)[C@H](N)c1cccc(F)c1N1CCN(C(=O)C2CN(Cc3ccccc3)CC2c2ccc(Cl)cc2)CC1 (stereo partly drawn) | 94 | 19 |  |
| CC(C)[C@H](N)c1cccc(F)c1N1CCN(C(=O)[C@@H]2CN(C(C)C)C[C@H]2c2ccc(Cl)cc2)CC1 |  | 86 |  |
| CC(C)C[C@H](N)c1cc(C(F)(F)F)ccc1N1CCN(C(=O)[C@@H]2CN(CCN)C[C@H]2c2ccc(Cl)cc2)CC1 | 180 | 37 |  |
| Cc1ccc(N2CCN(C(=O)[C@@H]3CN(C4CCN(CC(C)C)CC4)C[C@H]3c3ccc(Cl)cc3)CC2)c([C@@H](N)C(C)C)c1 | 5.4 | 1 | IC50 (Melanocortin receptor 4 [4]): 1800 nM |
| CC(C)[C@H](N)c1cccc(F)c1N1CCN(C(=O)[C@@H]2CN(CCC(F)(F)F)C[C@H]2c2ccc(Cl)cc2)CC1 | 205 |  |  |
| CC(C)[C@H](N)c1cccc(F)c1N1CCN(C(=O)[C@@H]2CN(C)C[C@H]2c2ccc(Cl)cc2)CC1 | 81 |  |  |
| COCC(C)N1C[C@@H](C(=O)N2CCN(c3ccc(C)cc3[C@@H](N)C(C)C)CC2)[C@H](c2ccc(Cl)cc2)C1 (stereo partly drawn) | 64 | 36 |  |
| Cc1ccc(N2CCN(C(=O)[C@@H]3CN(C(=O)C4CCC4)C[C@H]3c3ccc(Cl)cc3)CC2)c([C@@H](N)C(C)C)c1 | 78 | 22 |  |
| COCC(COC)N1C[C@@H](C(=O)N2CCN(c3ccc(C)cc3[C@@H](N)C(C)C)CC2)[C@H](c2ccc(Cl)cc2)C1 | 200 | 27 |  |
| CC(C)[C@H](N)c1cccc(F)c1N1CCN(C(=O)[C@@H]2CN(C3CCCCC3)C[C@H]2c2ccc(Cl)cc2)CC1 | 9.3 | 49 |  |
| CC(C)[C@H](N)c1cccc(F)c1N1CCN(C(=O)[C@@H]2CN(C3CCC3)C[C@H]2c2ccc(Cl)cc2)CC1 | 32 |  |  |
| CC(C)[C@H](N)c1cccc(F)c1N1CCN(C(=O)[C@@H]2CN(C(=O)C3CC3)C[C@H]2c2ccc(Cl)cc2)CC1 | 31 |  |  |
| CC(C)C(=O)N1C[C@@H](C(=O)N2CCN(c3c(F)cccc3[C@@H](N)C(C)C)CC2)[C@H](c2ccc(Cl)cc2)C1 | 250 |  |  |
| CC(C)C[C@H](N)c1cc(C(F)(F)F)ccc1N1CCN(C(=O)[C@@H]2CN(C(=O)c3ccccc3)C[C@H]2c2ccc(Cl)cc2)CC1 | 30 | 3 |  |
